# Data: EPA's ToxRefDB 2
# Legend:
# [1] = system: dog; details: Sub-acute repeat dose toxicity, beagle, Oral, Gavage/Intubation, dose end: 10 day, group: systemic
# [2] = system: rat; details: Sub-acute repeat dose toxicity; Oral; Gavage/Intubation; dose end: 10 day; group: systemic; systemic / in life observation / clinical signs / compulsive biting or licking + systemic / in life observation / clinical signs / …
# [3] = system: rat; details: Sub-acute repeat dose toxicity, sprague dawley, Oral, Gavage/Intubation, dose end: 29 day, group: systemic
# [4] = system: dog; details: Sub-acute repeat dose toxicity, beagle, Oral, Gavage/Intubation, dose end: 7 day, group: systemic
# [5] = system: rat; details: Sub-acute repeat dose toxicity, sprague dawley, Oral, Gavage/Intubation, dose end: 13 day, group: systemic
# [6] = system: dog; details: Sub-acute repeat dose toxicity; beagle; Oral; Gavage/Intubation; dose end: 29 day; group: systemic; systemic / in life observation / clinical signs / defecation (diarrhea) + systemic / in life observation / clinical signs / emesis + …
# [7] = system: dog; details: Sub-acute repeat dose toxicity, beagle, Oral, Gavage/Intubation, dose end: 1 month, group: systemic
# [8] = system: mouse; details: Subchronic oral toxicity in rodents, b6c3f1, Gavage/Intubation, dose end: 13 week, group: systemic
# [9] = system: rat; details: Subchronic oral toxicity in rodents, fischer, Gavage/Intubation, dose end: 13 week, group: systemic
# [10] = system: rat; details: Carcinogenicity, fischer, Oral, Gavage/Intubation, dose end: 103 week, group: systemic
# [11] = system: rabbit; details: Prenatal developmental toxicity study, chinchilla, Oral, Gavage/Intubation, dose end: 18 GD
# [12] = system: rat; details: Combined chronic toxicity/carcinogenicity, wistar, Oral, Feed, dose end: 24 month, group: systemic
# [13] = system: rat; details: Multigenerational reproductive toxicity study, wistar, Oral, Feed, dose end: 2 generation
# [14] = system: dog; details: Chronic toxicity; beagle; Oral; Feed; dose end: 52 week; group: systemic; systemic / clinical chemistry / cholesterol / cholesterol + systemic / clinical chemistry / cytochrome p450, nos / cytochrome p450, nos
# [15] = system: rat; details: Prenatal developmental toxicity study, other, Oral, Gavage/Intubation, dose end: 15 GD
# [16] = system: mouse; details: Carcinogenicity, b6c3f1, Oral, Feed, dose end: 24 month, group: systemic
# [17] = system: dog; details: Sub-acute repeat dose toxicity, beagle, Oral, Capsule, dose end: 5 week, group: systemic
# [18] = system: dog; details: Other (NonGuideline or Guideline Not Listed); beagle; Oral; Capsule; dose end: 3 day; group: cannot be grouped; systemic / in life observation / clinical signs / emesis
# [19] = system: rat; details: Subchronic oral toxicity in rodents, sprague dawley, Feed, dose end: 13 week, group: systemic, systemic / organ weight / uterus / relative to body weight
# [20] = system: dog; details: Subchronic oral toxicity in nonrodent, beagle, Feed, dose end: 14 week, group: systemic, systemic / organ weight / liver / absolute + systemic / organ weight / liver / relative to body weight
# [21] = systemic / in life observation / body weight / body weight + systemic / in life observation / clinical signs / altered breathing rate + …
# [22] = systemic / in life observation / clinical signs / salivation + systemic / in life observation / clinical signs / emesis
# [23] = systemic / in life observation / clinical signs / salivation + systemic / organ weight / liver / absolute + systemic / in life observation…
# [24] = systemic / in life observation / body weight / body weight + systemic / in life observation / food consumption / food consumption + systemic…
# [25] = systemic / in life observation / clinical signs / emesis
# [26] = systemic / in life observation / body weight / body weight + systemic / in life observation / clinical signs / lacrimation + systemic / in …
# [27] = systemic / organ weight / kidney / absolute + systemic / organ weight / liver / absolute + systemic / organ weight / spleen / absolute + …
# [28] = systemic / in life observation / clinical signs / defecation (diarrhea) + systemic / in life observation / clinical signs / feces, …
# [29] = systemic / in life observation / clinical signs / feces, discoloration
# [30] = systemic / in life observation / mortality / mortality + systemic / pathology microscopic / kidney / degeneration + systemic / pathology …
# [31] = systemic / in life observation / clinical signs / defecation (diarrhea) + systemic / in life observation / clinical signs / lethargy + …
# [32] = systemic / pathology microscopic / kidney / hyperplasia + systemic / pathology microscopic / kidney / nephropathy
# [33] = systemic / pathology microscopic / kidney / hyperplasia + systemic / pathology microscopic / kidney / nephropathy + systemic / in life …
# [34] = group: developmental, developmental / developmental malformation / bone / absent + developmental / developmental malformation / bone / fused + developmental / …
# [35] = group: maternal, systemic / in life observation / body weight / body weight gain
# [36] = group: maternal, systemic / in life observation / body weight / body weight gain + reproductive / reproductive performance / aborted / aborted + reproductive…
# [37] = systemic / pathology microscopic / thyroid gland / mineralization
# [38] = systemic / pathology microscopic / thyroid gland / mineralization + systemic / in life observation / body weight / body weight + systemic / …
# [39] = group: offspring, systemic / in life observation / body weight / offspring (pup) weight
# [40] = group: parental, systemic / in life observation / body weight / body weight gain
# [41] = group: developmental, developmental / developmental malformation / bone / wavy
# [42] = group: maternal, systemic / in life observation / body weight / body weight gain + systemic / in life observation / food consumption / food consumption
# [43] = systemic / in life observation / body weight / body weight + systemic / in life observation / body weight / body weight gain + systemic / in…
# [44] = systemic / clinical chemistry / cholesterol / cholesterol + systemic / hematology / erythrocyte (rbc) count differential / erythrocyte (rbc…
# [45] = systemic / pathology microscopic / testes / degeneration
compound,measurement,setting,value
CC(N)c1cc(F)ccc1Oc1ccc(Cl)c(Cl)c1 (configuration not stated),LOAEL,[1]; [21],> 100 mg/kg/day
same,NOAEL,[1]; [21],≥ 100 mg/kg/day
same,LEL,[1]; [22],3 mg/kg/day
same,NEL,[1]; [22],< 3 mg/kg/day
same,LEL,[2],3 mg/kg/day
same,LOAEL,[2],> 150 mg/kg/day
same,NEL,[2],< 3 mg/kg/day
same,NOAEL,[2],≥ 150 mg/kg/day
CN[C@H]1CC[C@@H](c2ccc(Cl)c(Cl)c2)c2ccc(S(N)(=O)=O)cc21,NEL,[3]; systemic / in life observation / clinical signs / salivation + systemic / organ weight / liver / absolute,20 mg/kg/day
same,LEL,[3]; [23],60 mg/kg/day
same,LOAEL,[3]; [23],> 60 mg/kg/day
same,NOAEL,[3]; [23],≥ 60 mg/kg/day
same,LOAEL,[4]; [24],> 160 mg/kg/day
same,NOAEL,[4]; [24],≥ 160 mg/kg/day
same,LEL,[4]; [25],40 mg/kg/day
same,NEL,[4]; [25],20 mg/kg/day
same,LOAEL,[5]; [26],> 320 mg/kg/day
same,NOAEL,[5]; [26],≥ 320 mg/kg/day
same,LEL,[5]; [27],40 mg/kg/day
same,NEL,[5]; [27],< 40 mg/kg/day
same,LEL,[6],5 mg/kg/day
same,LOAEL,[6],> 60 mg/kg/day
same,NEL,[6],< 5 mg/kg/day
same,NOAEL,[6],≥ 60 mg/kg/day
COc1ccc(C(=O)Nc2nc3ccccc3c(NCc3ccccc3)c2C#N)cc1,LOAEL,[7]; [28],1500 mg/kg/day
same,NOAEL,[7]; [28],750 mg/kg/day
same,LEL,[7]; [29],300 mg/kg/day
same,NEL,[7]; [29],< 300 mg/kg/day
Nc1cc([N+](=O)[O-])ccc1O [2-Amino-4-nitrophenol],LEL,[8]; systemic / in life observation / mortality / mortality,500 mg/kg/day
same,LOAEL,[8]; [30],> 1000 mg/kg/day
same,NEL,[8]; [30],250 mg/kg/day
same,NOAEL,[8]; [30],≥ 1000 mg/kg/day
same,LOAEL,[9]; [31],> 1000 mg/kg/day
same,NEL,[9]; [31],125 mg/kg/day
same,NOAEL,[9]; [31],≥ 1000 mg/kg/day
same,LEL,[9]; systemic / organ weight / liver / absolute,250 mg/kg/day
same,LOAEL,[10]; [32],125 mg/kg/day
same,NOAEL,[10]; [32],< 125 mg/kg/day
same,LEL,[10]; [33],125 mg/kg/day
same,NEL,[10]; [33],< 125 mg/kg/day
O=[N+]([O-])/N=C1\NCCN1Cc1ccc(Cl)nc1 [Imidacloprid],LEL,[11]; [34],72 mg/kg/day
same,LOAEL,[11]; [34],72 mg/kg/day
same,NEL,[11]; [34],24 mg/kg/day
same,NOAEL,[11]; [34],24 mg/kg/day
same,LEL,[11]; [35],24 mg/kg/day
same,NEL,[11]; [36],8 mg/kg/day
same,NOAEL,[11]; [36],24 mg/kg/day
same,LOAEL,"[11]; group: maternal, systemic / in life observation / body weight / body weight gain + reproductive / reproductive performance / postimplantation loss / …",72 mg/kg/day
same,LEL,[12]; [37],16.9 mg/kg/day
same,LOAEL,[12]; [37],16.9 mg/kg/day
same,NEL,[12]; [38],5.7 mg/kg/day
same,NOAEL,[12]; [38],5.7 mg/kg/day
same,LEL,[13]; [39],47.3 mg/kg/day
same,LOAEL,[13]; [39],47.3 mg/kg/day
same,NEL,[13]; [39],16.5 mg/kg/day
same,NOAEL,[13]; [39],16.5 mg/kg/day
same,LEL,[13]; [40],52.3 mg/kg/day
same,LOAEL,[13]; [40],52.3 mg/kg/day
same,NEL,[13]; [40],18.9 mg/kg/day
same,NOAEL,[13]; [40],18.9 mg/kg/day
same,LEL,[14],72 mg/kg/day
same,LOAEL,[14],> 72 mg/kg/day
same,NEL,[14],15 mg/kg/day
same,NOAEL,[14],≥ 72 mg/kg/day
same,LEL,[15]; [41],100 mg/kg/day
same,LOAEL,[15]; [41],100 mg/kg/day
same,NEL,[15]; [41],30 mg/kg/day
same,NOAEL,[15]; [41],30 mg/kg/day
same,LEL,[15]; [35],30 mg/kg/day
same,LOAEL,[15]; [35],30 mg/kg/day
same,NEL,[15]; [42],10 mg/kg/day
same,NOAEL,[15]; [42],10 mg/kg/day
same,LOAEL,[16]; [43],414 mg/kg/day
same,NEL,[16]; [43],66 mg/kg/day
same,NOAEL,[16]; [43],208 mg/kg/day
same,LEL,[16]; systemic / in life observation / body weight / body weight gain,208 mg/kg/day
NC(=O)c1nc(-c2cccc(-c3cc(F)ccc3OCC(F)(F)C(F)(F)F)c2)n[n-]1.O.[K+] [MK-274],LOAEL,[17]; [44],> 450 mg/kg/day
same,NOAEL,[17]; [44],≥ 450 mg/kg/day
same,LEL,[17]; [45],10 mg/kg/day
same,NEL,[17]; [45],< 10 mg/kg/day
same,LEL,[18],240 mg/kg/day
same,LOAEL,[18],> 400 mg/kg/day
same,NEL,[18],< 240 mg/kg/day
same,NOAEL,[18],≥ 400 mg/kg/day
CCN(CC)C(=O)C(C)Oc1cccc2ccccc12 (configuration not stated) [Napropamide],LEL,[19],50 mg/kg/day
same,LOAEL,[19],50 mg/kg/day
same,NEL,[19],25 mg/kg/day
same,NOAEL,[19],25 mg/kg/day
same,LEL,[20],100 mg/kg/day
same,LOAEL,[20],100 mg/kg/day
same,NEL,[20],40 mg/kg/day
same,NOAEL,[20],40 mg/kg/day
